{
  "source": "paper PMC7760514",
  "about": "“Fatty Acid Conjugation Leads to Length-Dependent Antimicrobial Activity of a Synthetic Antibacterial Peptide (Pep19-4LF)” (Antibiotics, 2020)",
  "key": {"red blood cells": {"tested_on": "red blood cells", "format": "cell-based, human", "experimental": "A hemolysis assay was performed using heparinized blood for Pep19-4LF, Pep19-2.5, C6-Pep19-short, C11-Pep19-short, and C18-Pep19-short to test the toxicity against red blood cells and selectivity against bacterial cells. A 600 µM stock solution of each peptide was prepared in 0.9% NaCl. Heparinized blood was taken from three individual fasted, healthy volunteers. To purify the erythrocytes, the blood was centrifuged at 2500 rpm for 10 min and the supernatant was removed. The cell-pellet was resuspended in standard PBS. The centrifugation step was repeated for three times until the supernatant was visibly clear. A 96-well v-bottom plate (Greiner Bio-One International GmbH, Kremsmünster, Austria) was loaded as follows: row 1 (A1-H1) was preloaded with 100 µL of 600 µM peptide stock solution and row 12 (A12-H12) was preloaded with 50 µL 10% Triton X-100 (PerkinElmer, Boston, USA) and served as a positive control. […] Fifty µL of the supernatant was then transferred to a new 96-well flat-bottom plate (Greiner Bio-One International GmbH, Kremsmünster, Austria) and the absorbance was measured at a wavelength of 554 nm, using an Infinite M200 PRO microplate reader (Tecan Trading, Maennedorf).\nHemolysis was calculated with the following equation: Hemolysis [%]= Aconjugate− Ablank/ATriton− Ablank"}, "[1]": {"tested_on": "Rothia kristinae (DSM 20032)", "test": "Minimal inhibitory concentration (MIC), broth microdilution", "format": "cell-based", "details": "Table 3 of supplement, n=3; unit inferred; 37 ± 1 °C", "experimental": "(§1) Minimal inhibitory concentrations (MICs) were determined against Gram-positive Enterococcus faecium vanA (UL 602570*, clinical isolate from Institute for Medical Microbiology and Hygiene, Heidelberg University Hospital, Heidelberg, Germany), Staphylococcus aureus (ATCC 25923), Rothia kristinae (DSM 20032), and Gram-negative Acinetobacter bohemicus (DSM 100419) (all obtained from the Department of Infectious Diseases, Medical Microbiology and Hygiene, Heidelberg University, Heidelberg, Germany) in a 96-well polypropylene plate (650261 Greiner Bio-One GmbH, Frickenhausen, Germany) according to European Committee on Antimicrobial Susceptibility Testing (EUCAST) and The Clinical & Laboratory Standards Institute (CLSI) guidelines. Briefly, the stock solutions of the peptide conjugates in water were adjusted to a concentration of 1.28 mg/mL. Starting with the highest concentration of 64 μg/mL in 96-well polypropylene plates, dilution series in cation-adjusted Mueller–Hinton broth (MHB II; Sigma Aldrich, Steinheim, Germany) were performed, resulting in the lowest concentration of 0.125 μg/mL. A logarithmic growing bacterial culture was adjusted to a McFarland corresponding to 1 × 10^8 cfu/mL using a McFarland counter (DensiCHEK® plus, bioMerieux, Marcy-l’Étoile, France). Finally, a bacterial suspension of 1 × 10^6 cfu/mL (further diluted in MHB II) was added to each peptide-conjugate concentration. Thus, the final bacterial concentration in each well was 5 × 10^5 cfu/mL. The bacteria were incubated at 37 ± 1 °C (for A. bohemicus: 30 ± 1 °C) overnight and the bacterial growth was analyzed after 18 to 20 h. The MIC was defined as the lowest concentration of substance without any visible growth. Vancomycin and colistin sulfate were purchased from Sigma-Aldrich Chemie GmbH, München, Germany and Carl Roth GmbH, Karlsruhe, Germany."}, "[2]": {"tested_on": "Acinetobacter bohemicus (DSM 100419)", "test": "Minimal bactericidal concentration (MBC)", "format": "cell-based", "details": "Table S2, n=3; unit inferred; lowest concentration killing 99.9% of the inoculum; agar 24 h, 30 ± 1 °C", "experimental": "(§2) Minimal bactericidal concentrations (MBCs) were determined by pipetting 3 µL of each broth dilution solution without visible growth onto a new agar plate. The agar plates were incubated at 37 ± 1 °C (for A. bohemicus: 30 ± 1 °C) for 24 h and were again analyzed with respect to bacterial growth. MBC is defined as the lowest concentration killing 99.9% of the inoculum."}, "[3]": {"tested_on": "Rothia kristinae (DSM 20032)", "test": "Minimal bactericidal concentration (MBC)", "format": "cell-based", "details": "Table 3 of supplement, n=3; unit inferred; lowest concentration killing 99.9% of the inoculum; agar 24 h, 37 ± 1 °C", "experimental": "as §2"}, "[4]": {"tested_on": "Acinetobacter bohemicus (DSM 100419)", "test": "Minimal inhibitory concentration (MIC), broth microdilution", "format": "cell-based", "design": "key to MIC value: MIC in μg/mL (lowest concentration without visible growth)", "details": "30 ± 1 °C; for MIC value: Table S2, n=3, no unit given (main text uses µg/mL)", "experimental": "as §1"}, "[5]": {"tested_on": "Enterococcus faecium (UL602570*, clinical isolate, vanA-resistant)", "test": "Minimal inhibitory concentration (MIC), broth microdilution", "format": "cell-based", "details": "cation-adjusted MHB II, 5 × 10^5 cfu/mL, 37 ± 1 °C, read after 18 to 20 h, n = 3", "experimental": "as §1"}, "[6]": {"tested_on": "Staphylococcus aureus (ATCC 25923)", "test": "Minimal inhibitory concentration (MIC), broth microdilution", "format": "cell-based", "details": "cation-adjusted MHB II, 5 × 10^5 cfu/mL, 37 ± 1 °C, read after 18 to 20 h, n = 3", "experimental": "as §1"}, "[7]": {"details": "rat, in vivo, iv", "quoted_text": "For this purpose, the tyrosine residues of the peptides were radiolabeled with ^125I (Hartmann Analytic GmbH, Braunschweig, Germany) using the chloramine-T method [28]. Free ^125I was separated by preparative HPLC as previously described by Schieck et al. [22]. Approximately 2 to 4 MBq of the radiolabeled peptides was injected intravenously into the tail vein and images were recorded immediately post injection and after 1 h, 2 h, 3 h, 5 h, and 24 h. Scintigraphical images were obtained by using a γ-camera (Gamma Imager, Biospace Lab, Paris, France)."}, "[8]": {"tested_on": "Rothia kristinae (DSM 20032)", "test": "Time-kill studies", "format": "cell-based", "details": "for time until all bacteria killed: n=3", "experimental": "Time–kill studies were performed in accordance with CLSI guidelines. Therefore, Rothia kristinae DSM 20032 was adjusted to a concentration of 1 x 10^8 cfu/mL and further diluted to 1 × 10^6 cfu/mL in cation-adjusted MHB II. According to the previous determined MIC values of Pep19-4LF, C11-Pep19-4LF, and bacitracin (positive control) (Sigma Aldrich Chemie GmbH, München, Germany), samples were taken for 4 × MIC, 2 × MIC, 1 × MIC, and 0.5 × MIC after 30 min, 1 h, 2 h, 4 h, and 8 h. These samples were diluted in sterile saline and 10 µL of each sample was loaded onto agar plates. A bacterial suspension of 1 × 10^6 cfu/mL served as a growth control. Incubation occurred at 37 ± 1 °C and all counted colonies were recalculated to the colony number in the original inoculum."}, "[9]": {"format": "physicochemical", "from_the_text": "The high MIC value of Pep19-short indicates the importance of a hydrophobic moiety for this synthetic antimicrobial peptide. […] If the length of the fatty acid is too short, the interaction between the peptide conjugate and components of the bacterial cell membrane might be unfavorable, thus leading to loss of efficiency. Fatty acids of medium chain length enable a stable plateau of low MIC values, indicating a more efficient interaction between the peptide conjugate and bacterial cells. […] A detailed interaction between Pep19 peptides and membrane-bound toxins was previously described by Correa et al.. […] A hypothesized mechanism for this interaction represents the reorganization of the bacterial membrane leading in an inability to maintain the osmotic pressure. Here, the positively-charged amino acids of the peptide conjugate might interact with the negatively-charged compounds of the bacterial cell wall and the hydrophobic part interacts with hydrophobic lipids of the bacterial membrane. Several mechanisms for a membrane disruption by amphiphilic peptides were further described by Sato and Feix. With respect to the parent peptide Pep19-4LF, the hydrophobic moiety was located at the C-terminus. As the synthesis leads to peptides that are linked to the resin via their C-terminus, the fatty acids were linked to the free N-terminus of the peptide. […]"}},
  "note": "Peptide text beside a SMILES is read from it. * marks the point of attachment. Hexanoyl = CCCCCC(=O)*",
  "data": [
    {"molecule": "CCCCCC(=O)NCC(=O)N[C@@H](CCCCN)C(=O)N[C@@H](CCCCN)C(=O)N[C@@H](Cc1ccc(O)cc1)C(=O)N[C@@H](CCCNC(=N)N)C(=O)N[C@@H](CCCNC(=N)N)C(=O)N[C@@H](Cc1ccccc1)C(=O)N[C@@H](CCCNC(=N)N)C(=O)N[C@@H](Cc1c[nH]c2ccccc12)C(=O)N[C@@H](CCCCN)C(=O)N[C@@H](Cc1ccccc1)C(=O)N[C@@H](CCCCN)C(=O)NCC(=O)N[C@@H](CCCCN)C(N)=O", "note": "[C6-Pep19-short] (Hexanoyl-GKKYRRFRWKFKGK-NH2)", "values": [
      {"measurement": "hemolytic activity", "setting": "red blood cells", "value": "no hemolytic activity"},
      {"measurement": "MIC value", "setting": "[1]", "value": 16, "unit": "µg/mL"},
      {"measurement": "MBC value", "setting": "[2]", "value": 16, "unit": "µg/mL"},
      {"measurement": "MBC value", "setting": "[3]", "value": 32, "unit": "µg/mL"},
      {"measurement": "MIC value", "setting": "[4]", "value": 16}
    ]},
    {"molecule": "GKKYRRFRWKFKGKLFLFG-NH2 [Pep19-4LF, synthetic antimicrobial parent peptide, …-NH2]", "values": [
      {"measurement": "MIC", "setting": "[5]", "value": 8, "unit": "µg/mL"},
      {"measurement": "MIC", "setting": "[6]", "value": 32, "unit": "µg/mL"},
      {"measurement": "MIC value", "setting": "[1]", "value": 8, "unit": "µg/mL"},
      {"measurement": "speed of elimination compared among the peptides", "setting": "[7]", "value": "slowest elimination"},
      {"measurement": "change in number of cfu/mL", "setting": "[8]; 0.5 × MIC, 0 to 8 h, n = 3", "value": "only a small decrease in the number of cfu/mL"},
      {"measurement": "time until all bacteria killed", "setting": "[8]; 1 × MIC", "value": "> 8", "unit": "h"},
      {"measurement": "time until all bacteria killed", "setting": "[8]; 2 × MIC", "value": 1, "unit": "h"},
      {"measurement": "time until all bacteria killed / no detectable cfu", "setting": "[8]; 4 × MIC, 1 × 10^6 cfu/mL in MHB II, 37 °C, n = 3", "value": 30, "unit": "min"},
      {"measurement": "mode of action", "setting": "[8]; 4 × MIC, n = 3", "value": "bactericidal mode of action"},
      {"measurement": "MBC value", "setting": "[2]", "value": 8, "unit": "µg/mL"},
      {"measurement": "MBC value", "setting": "[3]", "value": 8, "unit": "µg/mL"},
      {"measurement": "solubility in water", "setting": "[9]", "value": "very low solubility in water"},
      {"measurement": "MIC value", "setting": "[4]", "value": 8},
      {"measurement": "MIC", "setting": "[4]; broth microdilution, cation-adjusted MHB II, 5 × 10^5 cfu/mL, read after 18 to 20 h, n = 3", "value": 8, "unit": "µg/mL"}
    ]}
  ]
}
